Experimental data from paper PMC8772768, “Phytochemical Analysis and Dermo-Cosmetic Evaluation of Cymbidium sp. (Orchidaceae) Cultivation By-Products” (Antioxidants, 2021).
In brackets after ≈: the same amount, converted by molar mass. Entries after “also recorded” stand apart in the source; their conditions may differ. Each block holds one compound with its values, some of them ahead of it.

What was measured:
[1] = test system: collagenase; assay: Collagenase inhibition assay (fluorescent MMP-2 substrate); format: biochemical; conditions: for Collagenase inhibitory activity (in words): pure compounds at 25, 100, 250 μM; for Collagenase inhibition: mean ± SD, n = 3
Protocol: Collagenase inhibitory activity was determined by a previously described enzymatic method with slight modifications, based on the fluorescence of the MMP-2 substrate after its degradation by collagenase. In a 96-well black microplate, 50 μL of Tris-HCL buffer (10 mM, pH = 7.3), 25 μL of the tested sample (dissolved in Tris-HCL buffer), and 25 μL of collagenase solution (30 μg/mL dissolved in Tris-HCL buffer) were preincubated for 10 min at 37 °C, avoiding light exposure. Afterwards, 25 μL of MMP-2 substrate (50 μM dissolved in Tris-HCL buffer) were added, and the plate was incubated for an additional 30 min at 37 °C in the dark. The fluorescent intensity was measured at an excitation maximum of 320 nm and an emission maximum of 405 nm using a Tecan (Infinite 200 Pro series, Männedorf, Switzerland). Crude extracts were evaluated at 75 μg/mL, 150 μg/mL, and 300 μg/mL and pure compounds at 25 μΜ, 100 μΜ, and 250 μΜ, respectively, dissolved in PBS buffer, while the percentage of DMSO was under 5% of the total volume inside the plate. […] Experiments were performed in triplicate. The collagenase inhibitory activity was calculated by the following equation:Inhibition (%) = (Abs A − Abs B)/(Abs A) × 100 where Abs A = Abs Control − Abs Control Blank and Abs B = Abs Sample − Abs Sample Blank. Abs Control is the absorbance of Tris-HCL buffer with 5% DMSO, collagenase enzyme, and substrate, and Abs Sample is the absorbance of the tested sample in the Tris-HCL buffer, collagenase enzyme, and substrate. Blanks consist of all the above reagents except the enzyme.

[2] = test system: human cell lung cancer (NCI-H187) cell line; design: method as in PMID 30450973; conditions: cited from earlier work
[3] = target: T1, elastase (Sus scrofa, UniProt P00772); assay: Elastase inhibition assay (N-succinyl-Ala-Ala-Ala-p-nitroanilide); format: biochemical; conditions: for Elastase inhibitory activity (in words): pure compounds at 25, 100, 250 μM
T1 construct: purchased Sigma-Aldrich
T1 sequence (P00772 27-266): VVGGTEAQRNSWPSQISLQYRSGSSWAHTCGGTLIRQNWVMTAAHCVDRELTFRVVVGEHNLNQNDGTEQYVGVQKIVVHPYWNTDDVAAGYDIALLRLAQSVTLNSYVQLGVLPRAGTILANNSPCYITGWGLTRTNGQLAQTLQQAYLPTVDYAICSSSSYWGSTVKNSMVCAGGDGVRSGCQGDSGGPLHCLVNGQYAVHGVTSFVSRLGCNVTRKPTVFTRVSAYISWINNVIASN
Protocol: Elastase inhibitory activity was measured by the presence of p-nitroaniline, after the reaction of the elastase enzyme with the substrate N-succinyl-Ala-Ala-Ala-p-nitroanilide, using a previously described protocol with minor modifications. At first, 70 μL of Trizma-base buffer (50 mM, pH = 7.5), 10 μL of the tested sample, and 5 μL of elastase solution (0.4725 U/mL dissolved in Trizma-base buffer) were mixed in the 96-well microplate and were incubated for 10 min at 37 °C, avoiding light exposure. Following this procedure, 15 μL of the substrate (2 mM dissolved in Trizma-base buffer) were added to every well of the plate, and then the plate was incubated for 30 min at 37 °C. The presence of p-nitroaniline was measured spectrophotometrically at 405 nm using a Tecan (Infinite 200 Pro series, Männedorf, Switzerland). The final tested concentrations of the extracts and pure compounds were 50 μg/mL, 100 μg/mL, 300 μg/mL, and 25 μΜ, 100 μΜ, 250 μΜ, respectively, dissolved in Trizma-base buffer, and the percentage of DMSO was under 5% of the total volume inside the plate. The negative control of the assay was 5% DMSO Trizma-base buffer, and the positive was Elastatinal (IC100 = 5 μg/mL and IC50 = 0.5 μg/mL), a strong irreversible competitive elastase inhibitor. Experiments were performed in triplicate.
The elastase inhibitory activity was calculated by the following equation:Inhibition (%) = (Abs A − Abs B)/(Abs A) × 100 where Abs A = Abs Control − Abs Control Blank and Abs B = Abs Sample − Abs Sample Blank. Abs Control is the absorbance of Trizma-base Buffer with 5% DMSO, elastase enzyme, and substrate, and Abs Sample is the absorbance of the tested sample in the Trizma-base buffer, elastase enzyme, and substrate. Blanks consist of all the above reagents except the enzyme.

[4] = target: tyrosinase (Agaricus bisporus, UniProt C7FF04); assay: Tyrosinase inhibition assay (L-DOPA, dopachrome at 475 nm); format: biochemical; conditions: pure compounds at 25, 100, 250 μM
tyrosinase, sequence (C7FF04 1-392): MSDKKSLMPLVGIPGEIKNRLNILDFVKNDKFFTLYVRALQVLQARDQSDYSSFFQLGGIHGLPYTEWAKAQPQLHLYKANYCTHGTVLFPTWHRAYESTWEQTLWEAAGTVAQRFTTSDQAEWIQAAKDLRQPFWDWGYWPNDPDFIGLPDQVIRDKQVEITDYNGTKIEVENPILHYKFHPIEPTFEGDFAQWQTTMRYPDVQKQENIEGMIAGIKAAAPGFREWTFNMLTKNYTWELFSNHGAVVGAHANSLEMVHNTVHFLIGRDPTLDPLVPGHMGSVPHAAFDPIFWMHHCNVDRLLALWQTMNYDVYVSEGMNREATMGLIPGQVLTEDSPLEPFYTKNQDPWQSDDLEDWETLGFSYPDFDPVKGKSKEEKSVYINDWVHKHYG

[5] = DPPH radical scavenging assay; format: biochemical; conditions: dissolved in DMSO
Protocol: The final tested concentrations of the extracts were 5 μg/mL, 10 μg/mL, 20 μg/mL, 50 μg/mL, 100 μg/mL, 250 μg/mL, and 500 μg/mL dissolved in DMSO. […] Experiments were performed in triplicate. The antioxidant activity was calculated by the following equation:Inhibition (%) = (Abs A − Abs B)/(Abs A) × 100 where Abs A = Abs Control − Abs Control Blank and Abs B = Abs Sample − Abs Sample Blank. Abs Control is the absorbance of the negative control, and Abs Sample is the absorbance of the tested sample. Blanks consist of all the above reagents except the free radical reagent.

[6] = test system: mushroom tyrosinase; design: method as in PMID 18503477; conditions: cited from earlier work

SMILES: COc1cc2ccc3cccc(O)c3c2c(OC)c1O [Compound 1, bulbophyllanthrin]
Collagenase inhibitory activity (in words) [1]: dose-dependent anti-collagenase activity

SMILES: COc1ccc2c(ccc3cc(OC)c(O)c(OC)c32)c1 [Compound 2, 3-hydroxy-2,4,7-trimethoxy-phenanthrene]
Collagenase inhibition ([1]; pure compound at 25 μM): 12.62 ± 1.48% | Collagenase inhibition ([1]; pure compound at 100 μM): 50.05 ± 2.67% | Collagenase inhibition ([1]; pure compound at 250 μM): 72.73 ± 1.38% | Collagenase inhibitory activity (in words) [1]: dose-dependent anti-collagenase activity

SMILES: COc1cc2c(c(OC)c1O)-c1c(O)cccc1CC2 [Compound 4, marylaurencinol A]
Collagenase inhibitory activity (in words) [1]: dose-dependent anti-collagenase activity

SMILES: COC1=CC(=O)c2c(ccc3cccc(O)c23)C1=O [Compound 5, 5-hydroxy-2-methoxy-1,4-phenanthrenequinone]
Collagenase inhibitory activity (in words) [1]: dose-dependent anti-collagenase activity | cytotoxic activity [2]: cytotoxic activity

SMILES: COC1=CC(=O)C2=C(CCc3cccc(O)c32)C1=O [Compound 6, ephemeranthroquinone B]
Collagenase inhibitory activity (in words) [1]: dose-dependent anti-collagenase activity

SMILES: COc1cc(O)cc(CCc2ccc(O)c(OC)c2)c1 [Compound 8, gigantol]
Elastase inhibitory activity (in words) [3]: non-active | Collagenase inhibitory activity (in words) [1]: non-active | Tyrosinase inhibitory activity (in words) [4]: important anti-tyrosinase activity; also recorded: moderate, dose-dependent, inhibition activity

SMILES: COc1cc(CCc2cc(O)cc(O)c2)ccc1O [Compound 9, tristin]
Elastase inhibitory activity (in words) [3]: non-active | Collagenase inhibitory activity (in words) [1]: non-active | Tyrosinase inhibitory activity (in words) [4]: important anti-tyrosinase activity; also recorded: moderate, dose-dependent, inhibition activity

SMILES: Cc1cc(O)cc(O)c1 [Compound 14, orcinol]
Elastase inhibitory activity (in words) [3]: inactive | Collagenase inhibitory activity (in words) [1]: inactive

IC50 ([3]; positive control): 0.975 µM | IC100 (elastase, positive control) ([3]; positive control): 5 µg/mL
SMILES: CC(C)C[C@H](NC(=O)N[C@H](C(=O)N[C@@H](CCC(N)=O)C(=O)N[C@@H](C)C=O)[C@@H]1CCNC(=N)N1)C(=O)O [Elastatinal, reference compound]

IC50 (DPPH, positive control) [5]: 100 µg/mL (≈ 588 µM)
SMILES: O=C(O)c1cc(O)c(O)c(O)c1 [Gallic Acid]

SMILES: CC(C)C[C@H](NP(=O)(O)O[C@@H]1O[C@@H](C)[C@H](O)[C@@H](O)[C@H]1O)C(=O)N[C@@H](Cc1c[nH]c2ccccc12)C(=O)O [Phosphoramidon, reference compound]
IC50 ([1]; positive control): 6.9 µM

SMILES: Oc1ccc(/C=C/c2cc(O)cc(O)c2)cc1 [resveratrol]
inhibitory effects on mushroom tyrosinase [6]: potent inhibitory effects
